Assay results as given in patent publication EP3485891A1, “WOUND TREATMENT COMPOSITION CONTAINING ULDAVIOSIDE A COMPOUND” (Elcubio Co., Ltd., priority 2016, dated 2018).

Columns and labels:
[1] = tested on: hack-induced animal tissue; experiment: Histological change of hack wound tissue (H&E stain, Masson's trichrome stain); format: in vivo, Sprague-Dawley white rats
Procedure: In order to investigate a hack healing effect of the uldavioside A compound of the present invention, a histological change was observed using the hack-induced animal tissue.
The collected tissue was fixed by treatment with 10% formalin for 24 hours. The fixed tissue was embedded with paraffin, and cut into a 5 µm thickness to obtain tissue sections. The tissue sections were deparaffinized, hydrated, and washed, and then subjected to hematoxylin & eosin stain or Masson's trichrome stain.
Masson's trichrome stain is used to investigate collagen in the tissue, and collagenosis means that the wound in the dermis healed and the functions of the tissue were restored.

[2] = tested on: diabetes-induced animal models; experiment: Diabetic ulcer healing, circular cut in streptozotocin-induced diabetic rats; format: in vivo, Sprague-Dawley white rats; settings: dorsal circular cut 1 or 1.5 cm, ointment containing 0.025 wt%, topical, 8 days at intervals of 2 days, compared with the control, FIG. 9
Procedure: In order to investigate a diabetic ulcer healing effect of the uldavioside A compound of the present invention, an animal experiment was conducted.
7-week-old Sprague-Dawley white rats with a body weight of about 300 g were intraperitoneally injected with 60 mg/kg streptozotocin to induce diabetes. After three days, only white rates with a blood glucose level of 300 mg/dℓ or higher were selected by collecting venous blood from the tail vein and measuring the glucose level using a blood glucose meter. The dorsal part of each of the selected white rats was shaved, and a circular cut with a diameter of 1 or 1.5 cm was made on the dorsal part 4-5 cm away from the ear using a puncher. After the circular cut was made, the white rats were randomly assigned and divided into a control treated without the uldavioside A compound of the present invention and a treatment group. For the treatment group, on the day of circular cut induction, the cut was treated with an ointment containing 0.025 wt% of the uldavioside A compound (Preparation Example 1-2 below), wrapped with sterilized Korean traditional paper, and fixed with a band and a bandage to maintain a wet environment. For the control, the cut was treated with an ointment not containing the uldavioside A compound.

C2C12 cells [3] = experiment: Wound healing (scratch) assay under inflammatory stress (LPS); format: cell-based; settings: 10 µM, 1 hour pre-incubation, then 10 µg/mℓ LPS, 0, 12, 24 hours, compared with the controls (LPS only), FIG. 3A, 3B
Procedure: (§1) In order to investigate the activity of the uldavioside A compound of the present invention, animal cells were incubated. Here, C212 cells, as myoblasts, and NIH3T3 cells and human diploid fibroblasts (HDFs), as fibroblasts, were used as the animal cells. Each type of cells were incubated in a 5% CO2 incubator containing Dulbecco's modified eagle's medium (DMEM) supplemented with 10% fetal bovine serum (FBS), 100 U/mℓ penicillin, and 100 µg/mℓ streptomycin at 37 °C.
(§2) In order to investigate a wound healing effect according to the treatment with the uldavioside A compound of the present invention, a wound healing assay was conducted.
(§3) The C2C12 and NIH3T3 cells incubated in Experimental Example 1 above were dispensed at 1×10^6 cells per well in a 12-well plate, and then stabilized through incubation for 24 hours. Thereafter, DMEM medium containing 0.5% FBS, 100 U/mℓ penicillin, and 100 µg/mℓ streptomycin was placed therein, and then the cells were incubated for 18 hours. After the 18-hour incubation, a scratch with about 0.9 mm was made in the center of each well with growing cells, and the cells were treated with a 10 µM uldavioside A compound, followed by pre-incubation for 1 hour. After 1 hour, the cells were treated with 10 µg/mℓ lipopolysaccharide (LPS) for inflammatory stress stimulation, and then migration of the cells was observed while the cells were incubated. […]

NIH3T3 cells [4] = experiment: as above; format: cell-based; settings: 10 µM, 1 hour pre-incubation, then 10 µg/mℓ LPS, 0, 12, 24 hours, compared with the controls (LPS only), FIG. 3C, 3D, migration activity higher than in C2C12
Procedure: as §1, §2, §3

C2C12 cells [5] = experiment: MTT assay, cytotoxicity; format: cell-based; settings: 1 µM and 10 µM, 24 hours
Procedure: as §1
(§4) The cytotoxicity of the uldavioside A compound of the present invention was investigated using a 3-(4,5-dimethylthiazol-2-yl)-2,5-diphenyltetrazolium bromide (MTT) assay.
(§5) The C2C12 and NIH3T3 cells incubated in Experimental Example 1 above were dispensed at 1×10^5 cells per well in a 48-well plate and then incubated for 24 hours. Thereafter, DMEM medium containing 0.5% FBS, 100 U/mℓ penicillin, and 100 µg/mℓ streptomycin was placed therein, and then the cells were incubated for 18 hours. After the 18-hour incubation, the cells were treated with an uldavioside A compound at 1 µM and 10 µM and then incubated for 24 hours. Here, non-treated C2C12 and NIH3T3 cells were used as controls. After 24 hours, the cells were treated with an MTT solution at 100 µg/mℓ and incubated at 37 °C for 3 hours. Thereafter, the culture liquid was removed and the formed formazan precipitate was dissolved in 200 µℓ of dimethyl sulfoxide (DMSO), and then the absorbance was measured at 570 nm.

NIH3T3 cells [6] = experiment: MTT assay, cytotoxicity; format: cell-based; settings: 1 µM and 10 µM, 24 hours
Procedure: as §1, §4, §5

HDF cells = experiment: Cytoprotective activity against glucose oxidative stress in high-glucose environment (MTT); format: cell-based, human; settings: 50 mM D-glucose, 10 µM and 20 µM, 7 mU/mℓ glucose oxidase, 24 hours, FIG. 8A
Procedure: as §1
(§6) The cytoprotective activity of the uldavioside A compound of the present invention against glucose oxidative stress was investigated.
(§7) The C2C12 cells and HDF cells incubated in Experimental Example 1 were dispensed at 1×10^5 per well in a 48-well plate, respectively, and then incubated for 24 hours. Thereafter, each well was treated with 50 mM D-glucose to create a high-glucose environment. Then, the cells were treated with the uldavioside A compound at 10 µM and 20 µM, and after 1 hour, were treated with 7 mU/mℓ glucose oxidase, followed by incubation for 24 hours. Here, non-treated C2C12 or HDF cells were used as control 1, high-glucose state cells were used as control 2, and high-glucose state cells treated with glucose oxidase were used as control 3. […] Thereafter, the culture liquid was removed and the formed formazan precipitate was dissolved in 200 µℓ of DMSO, and then the absorbance was measured at 570 nm.

C2C12 cells [7] = experiment: Wound healing (scratch) assay under glucose oxidative stress (glucose oxidase); format: cell-based; settings: 10 µM, 7 mU/mℓ glucose oxidase, compared with the controls, FIG. 4A, 4B
Procedure: as §1
(§8) The C2C12 and NIH3T3 cells incubated in Experimental Example 1 above were dispensed at 1×10^6 cells per well in a 12-well plate, and then stabilized through incubation for 24 hours. Thereafter, DMEM medium containing 0.5% FBS, 100 U/mℓ penicillin, and 100 µg/mℓ streptomycin was placed therein, and then the cells were incubated for 18 hours. After the 18-hour incubation, a scratch with about 0.9 mm was made in the center of each well with growing cells, and the cells were treated with a 10 µM uldavioside A compound, followed by pre-incubation for 1 hour. […] Here, at 0, 12, and 24 hours, the cells were fixed with a fixative (2% formaldehyde and 0.2% glutaraldehyde) and stained with 0.3% crystal violet, and then, the migration of the cells was checked using a microscope, and the reduction in area due to the migration of the cells into a wounded site. […]

NIH3T3 cells [8] = experiment: as above; format: cell-based; settings: 10 µM, 7 mU/mℓ glucose oxidase, compared with the controls, FIG. 4, migration activity higher than in C2C12
Procedure: as §1, §8

C2C12 cells [9] = experiment: Cytoprotective activity against glucose oxidative stress in high-glucose environment (MTT); format: cell-based; settings: 50 mM D-glucose, 10 µM and 20 µM, 7 mU/mℓ glucose oxidase, 24 hours, FIG. 8B
Procedure: as §1, §6, §7

bFGF = experiment: Immunohistochemistry of hack wound tissue sections; format: in vivo, Sprague-Dawley white rats; settings: IHC, tissue sections on day 10, compared with the control, FIG. 7B
Text: (§9) In order to investigate a hack healing effect of the uldavioside A compound of the present invention, the expression changes of proteins associated with angiogenesis and tissue regeneration were observed.
(§10) The tissue sections on day 10, which were fabricated in Experimental Example 4-2 above, were deparaffinized, hydrated, and washed, and were then subjected to immunohistochemistry (IHC) using antibodies of vascular endothelial growth factor (VEGF) and CD31, which are proteins associated with angiogenesis in tissue, and basic fibroblast growth factor (bFGF) and β-catenin, which are proteins associated with tissue regeneration.

CD31 = experiment: Immunohistochemistry of hack wound tissue sections; format: in vivo, Sprague-Dawley white rats; settings: IHC, tissue sections on day 10, compared with the control, FIG. 7A
Text: as §9, §10

VEGF = experiment: Immunohistochemistry of hack wound tissue sections; format: in vivo, Sprague-Dawley white rats; settings: IHC, tissue sections on day 10, compared with the control, FIG. 7A
Text: as §9, §10

β-catenin = experiment: Immunohistochemistry of hack wound tissue sections; format: in vivo, Sprague-Dawley white rats; settings: IHC, tissue sections on day 10, compared with the control, FIG. 7B
Text: as §9, §10

[10] = tested on: Sprague-Dawley white rats; experiment: Full-thickness hack wound healing, visual observation and wound size quantification; format: in vivo; settings: rat hind leg, 3 cm-diameter full-thickness hack, ointment containing 0.025 wt%, topical; days 3, 7, 10, 14; compared with the control (ointment without compound), FIG. 5
Procedure: In order to investigate a wound healing effect of the uldavioside A compound of the present invention, an animal experiment was conducted.
A hind leg of 7-8 week-old Sprague-Dawley white rats was shaved, and disinfected with 70% alcohol, and then a 3 cm-diameter circular full-thickness hack was made. After the full-thickness hack was made, the rats were randomly assigned and divided into a control treated without the uldavioside A compound of the present invention and a treatment group. For the treatment group, on the day of hack induction, the wound was treated with an ointment (Preparation Example 1-2 below) containing 0.025 wt% of the uldavioside A compound, wrapped with sterilized Korean traditional paper, and fixed with a band and a bandage to maintain a wet environment. For the control, the wound was treated with an ointment not containing the uldavioside A compound. Thereafter, on days 3, 7, 10, and 14 of wound induction, the wound site was observed, and the size of the wound site was quantified.

SMILES: OCC1(O)COC(Oc2cc(O)cc3c2CC(O)C(c2ccc(O)c(O)c2)O3)C1O (stereo not drawn) [uldavioside A compound, uldavioside A]
- inflow of immune cells ([1]; H&E stain, day 3 after hack induction, ointment 0.025 wt%, FIG. 6(A)): reduced
- angiogenesis and granulation tissues formation ([1]; H&E stain, day 7 after hack induction, ointment 0.025 wt%, FIG. 6(A)): actively progressing
- proliferation of fibroblasts ([1]; H&E stain, day 10 after hack induction, ointment 0.025 wt%, FIG. 6(A)): active proliferation of fibroblasts were observed
- amount of collagen stained ([1]; Masson's trichrome stain, day 7 after hack induction, compared with the control, FIG. 6(B)): remarkably increased
- collagenosis ([1]; Masson's trichrome stain, day 17, FIG. 6(B)): collagenosis in most tissues
- wound site (wound size) [2]: started healing from day 4 and the wound size remarkably decreased
- cell migration (C2C12 cells [3]): increased
- cell migration (NIH3T3 cells [4]): increased
- cytotoxicity (C2C12 cells [5]; MTT): no cytotoxicity
- cell viability (C2C12 cells [5]; compared with the controls (non-treated cells), FIG. 2A): increased
- cytotoxicity (NIH3T3 cells [6]; MTT): no cytotoxicity
- cell viability (NIH3T3 cells [6]; compared with the controls (non-treated cells), FIG. 2B): increased
- reduction in cell viability by glucose oxidative stress (HDF cells): inhibited in a dose-dependent manner
- cell migration (C2C12 cells [7]): increased
- cell migration (NIH3T3 cells [8]): increased
- reduction in cell viability by glucose oxidative stress (C2C12 cells [9]): inhibited in a dose-dependent manner
- expression level of bFGF (bFGF): significantly increased
- expression level of CD31 (CD31): significantly increased
- expression level of VEGF (VEGF): significantly increased
- expression level of β-catenin (β-catenin): significantly increased
- wound site (size of the wound site) [10]: started healing from day 7, and almost healed on day 14
